The results in this text go back to patent US12662491B2 (Redona Therapeutics, Inc., priority 2020, dated 2026).

One may read the IC50 as the concentration that gives 50% inhibition.

SMILES strings stand for the structures.

For the first test, the target named is T1, Zcchc11 enzyme (Homo sapiens, UniProt Q5TAX3).
T1 construct: made in house; host or cells: HEK293 cells (Zcchc11); E. coli Rosetta II (LIN28A)
T1 sequence (Q5TAX3 212-1420): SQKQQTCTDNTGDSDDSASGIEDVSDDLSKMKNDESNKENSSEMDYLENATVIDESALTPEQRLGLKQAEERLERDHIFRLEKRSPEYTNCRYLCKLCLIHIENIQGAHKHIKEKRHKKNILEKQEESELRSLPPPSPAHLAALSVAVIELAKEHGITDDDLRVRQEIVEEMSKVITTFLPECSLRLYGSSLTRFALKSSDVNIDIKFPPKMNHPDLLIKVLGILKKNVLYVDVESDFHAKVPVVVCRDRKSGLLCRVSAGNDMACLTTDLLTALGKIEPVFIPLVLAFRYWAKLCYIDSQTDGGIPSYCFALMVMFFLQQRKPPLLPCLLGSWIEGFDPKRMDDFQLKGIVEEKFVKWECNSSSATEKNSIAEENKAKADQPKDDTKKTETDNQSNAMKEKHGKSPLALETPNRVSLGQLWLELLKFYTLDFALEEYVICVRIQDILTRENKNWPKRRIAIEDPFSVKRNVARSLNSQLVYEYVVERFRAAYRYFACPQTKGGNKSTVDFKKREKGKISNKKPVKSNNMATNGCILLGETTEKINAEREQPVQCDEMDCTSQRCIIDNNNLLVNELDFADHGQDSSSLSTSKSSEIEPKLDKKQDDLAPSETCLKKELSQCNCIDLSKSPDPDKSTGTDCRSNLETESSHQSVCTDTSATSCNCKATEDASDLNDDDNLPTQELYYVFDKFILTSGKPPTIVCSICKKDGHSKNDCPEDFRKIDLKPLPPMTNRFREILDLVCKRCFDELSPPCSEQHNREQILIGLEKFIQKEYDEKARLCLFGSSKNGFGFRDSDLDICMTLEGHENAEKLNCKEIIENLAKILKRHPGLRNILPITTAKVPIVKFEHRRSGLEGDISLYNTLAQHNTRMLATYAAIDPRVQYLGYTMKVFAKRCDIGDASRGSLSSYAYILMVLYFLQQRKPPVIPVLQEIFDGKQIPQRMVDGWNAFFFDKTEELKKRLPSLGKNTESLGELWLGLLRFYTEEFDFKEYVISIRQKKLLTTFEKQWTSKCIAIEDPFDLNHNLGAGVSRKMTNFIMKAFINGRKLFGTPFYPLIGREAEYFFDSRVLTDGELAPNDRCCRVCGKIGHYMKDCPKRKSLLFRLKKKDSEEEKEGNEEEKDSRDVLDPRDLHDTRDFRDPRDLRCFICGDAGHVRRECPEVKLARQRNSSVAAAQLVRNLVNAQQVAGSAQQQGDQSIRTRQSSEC
The test can be described thus: TUTase assay (Zcchc11 assay, Lin28a-dependent polyuridylation of pre-let-7). The note with it: LIN28A 10 nM, Zcchc11 0.2 nM, 5′-fluorescein pre-let-7 miRNA 2 nM, UTP 5 uM, room temperature, 30 minutes pre-incubation; read-out: Potency Lin28a-dep Z11 IC50. Format: biochemical. The method in brief:
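Readout: time-dependent quench of 5′-fluorescein pre-let-7 (2 nM) as 3′-rhodamine A20 probe anneals to poly(U) tails. Enzyme 0.2 nM Zcchc11 (res. 212-1420), LIN28A 10 nM, UTP 5 uM; pH 7.3 HEPES, 150 mM KCl, 5 mM MgCl2, RT. 4-parameter IC50; 100% = DMSO, 0% = no UTP.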
For `Cc1ccnn(C[C@H]2CCCN2c2cc3c(cc2F)c(=O)c(C(=O)O)cn3-c2ccc(O)cc2)c1=O` [Example 23, (R)-6-fluoro-1-(4-hydroxyphenyl)-7-(2-((5-methyl-6-oxopyridazin-1(6H)-yl)methyl)pyrrolidin-1-yl)-4-oxo-1,4-dihydroquinoline-3-carboxylic acid], the concentration for half-maximal inhibition (IC50) is at most 1000 nM.

Staying with this test, now noted: Lin28a-dependent Zcchc11 (Z11) TUTase activity; read-out: Potency Lin28a-dep Z11 IC50.
Take `N#Cc1cc2c(=O)c(C(=O)O)cn(-c3cnc(N4CCC4)cn3)c2nc1N1CCC[C@@H]1COc1ncccc1F` (racemic) [Compound 194, rac-(R)-1-(5-(azetidin-1-yl)pyrazin-2-yl)-6-cyano-7-(2-(((3-fluoropyridin-2-yl)oxy)methyl)pyrrolidin-1-yl)-4-oxo-1,4-dihydro-1,8-naphthyridine-3-carboxylic acid]: the half-maximal inhibitory concentration (IC50) was at most 1000 nM. As for `COc1ccc(F)c(OC[C@H]2C[C@H]3C[C@H]3N2c2cc3c(cc2Cl)c(=O)c(C(=O)O)cn3-c2ccc(N(C)C)nc2)n1` [Compound 266, 6-chloro-1-(6-(dimethyl-amino)pyridin-3-yl)-7-((1R,3R,5R)-3-(((3-fluoro-6-methoxy-pyridin-2-yl)oxy)methyl)-2-azabicyclo [3.1.0]hexan-2-yl)-4-oxo-1,4-dihydro-quinoline-3-carboxylic acid], the IC50 is at most 1000 nM. The same measure, in the same setting: the figure for `O=C(O)c1cn(-c2ccc(O)cc2F)c2cc(N3CCC[C@@H]3COc3ccccn3)c(F)cc2c1=O` [Compound 83, (R)-6-fluoro-1-(2-fluoro-4-hydroxy-phenyl)-4-oxo-7-(2-((pyridin-2-yloxy)methyl)pyrrolidin-1-yl)-1,4-dihydro-quinoline-3-carboxylic acid] is at most 1000 nM; for `CN(C)C1CN(c2ccc(-n3cc(C(=O)O)c(=O)c4cc(Cl)c(N5CC(c6cnn(C)c6)C[C@@H]5COc5ncccc5Cl)cc43)cn2)C1` (mixture of isomers) [Compound 188, rac-6-chloro-7-((2R)-2-(((3-chloropyridin-2-yl)oxy)methyl)-4-(1-methyl-1H-pyrazol-4-yl)pyrrolidin-1-yl)-1-(6-(3-(dimethyl-amino)azetidin-1-yl)pyridin-3-yl)-4-oxo-1,4-dihydro-quinoline-3-carboxylic acid] it is at most 1000 nM. Still for that read-out and setting: the figure for `CN(C)C1CN(c2ccc(-n3cc(C(=O)O)c(=O)c4cc(Cl)c(N5CC(F)(F)C[C@@H]5COc5ncccc5Cl)nc43)cn2)C1` [Compound 301, (R)-6-chloro-7-(2-(((3-chloropyridin-2-yl)oxy)methyl)-4,4-difluoro-pyrrolidin-1-yl)-1-(6-(3-(dimethyl-amino)azetidin-1-yl)pyridin-3-yl)-4-oxo-1,4-dihydro-1,8-naphthyridine-3-carboxylic acid] is at most 1000 nM; for `COc1ccc(Cl)c(OCC2N(c3cc4c(cc3Cl)c(=O)c(C(=O)O)cn4-c3ccc(N4CC(N(C)C)C4)nc3)CCC2(C)C)n1` (centres unmarked) [Compound 257, 6-chloro-7-(2-{[(3-chloro-6-methoxy-pyridin-2-yl)oxy]methyl}-3,3-dimethyl-pyrrolidin-1-yl)-1-{6-[3-(dimethyl-amino)azetidin-1 yl]pyridin-3-yl}-4-oxoquinoline-3-carboxylic acid] it is at most 1000 nM. On the same count and under the same terms, then `COc1ccc(Cl)c(OC[C@H]2C[C@@H]3C[C@@H]3N2c2cc3c(cc2F)c(=O)c(C(=O)O)cn3-c2ccnc(N)c2)n1` (racemic) [Compound 230, Rac-1-(2-aminopyridin-4-yl)-7-((1R,3S,5R)-3-(((3-chloro-6-methoxy-pyridin-2-yl)oxy)methyl)-2-azabicyclo [3.1.0]hexan-2-yl)-6-fluoro-4-oxo-1,4-dihydro-quinoline-3-carboxylic acid], with at most 1000 nM; and `CN(C)C1CN(c2ccc(-n3cc(C(=O)O)c(=O)c4cc(C#N)c(N5C(COc6ncccc6F)CCC5(C)C)cc43)cn2)C1` (centres unmarked) [Compound 264, 6-cyano-1-(6-(3-(dimethyl-amino)azetidin-1-yl)pyridin-3-yl)-7-(5-(((3-fluoropyridin-2-yl)oxy)methyl)-2,2-dimethyl-pyrrolidin-1-yl)-4-oxo-1,4-dihydro-quinoline-3-carboxylic acid], with 1000 to 10000 nM. As for `O=C(O)c1cn(-c2ccc(O)cc2)c2cc(N3CCC[C@@H]3COc3ccccc3Cl)c(F)cc2c1=O` [Compound 107, (R)-7-(2-((2-chlorophenoxy)methyl)pyrrolidin-1-yl)-6-fluoro-1-(4-hydroxy-phenyl)-4-oxo-1,4-dihydro-quinoline-3-carboxylic acid], the IC50 lay in the range of 1000 to 10000 nM.

The same test, now with this note: Lin28a-dependent Zcchc11 (Z11) TUTase assay; read-out: Potency Lin28a-dep Z11 IC50.
On to `O=C(O)c1cn(-c2ccc(C3(O)COC3)nc2)c2cc(N3CCC[C@@H]3COc3ncccc3Cl)c(Cl)cc2c1=O` [Example 607, (R)-6-chloro-7-(2-(((3-chloropyridin-2-yl)oxy)methyl)pyrrolidin-1-yl)-1-(6-(3-hydroxy-oxetan-3-yl)pyridin-3-yl)-4-oxo-1,4-dihydroquinoline-3-carboxylic acid], for which the concentration for half-maximal inhibition (IC50) was at most 1000 nM. Turning to `O=C(O)c1cn(-c2ccc(N3CC4CNCC4C3)nc2)c2cc(N3CCC[C@@H]3COc3ncccc3Cl)c(Cl)cc2c1=O` (stereo partly drawn) [Example 527, 6-chloro-7-((R)-2-(((3-chloropyridin-2-yl)oxy)methyl)pyrrolidin-1-yl)-1-(6-(hexahydro-pyrrolo[3,4-c]pyrrol-2(1H)-yl)pyridin-3-yl)-4-oxo-1,4-dihydroquinoline-3-carboxylic acid acid], the IC50 is at most 1000 nM. Still for that read-out and setting: the figure for `O=C(O)c1cn(-c2ncccn2)c2cc(N3CCC[C@@H]3COc3ncccc3Cl)c(Cl)cc2c1=O` [Example 500, (R)-6-chloro-7-(2-(((3-chloropyridin-2-yl)oxy)methyl)pyrrolidin-1-yl)-4-oxo-1-(pyrimidin-2-yl)-1,4-dihydroquinoline-3-carboxylic acid] is at most 1000 nM; for `O=C(O)c1cn(-c2ccc(N3CC(N4CCC4)C3)nc2)c2cc(N3CCC[C@@H]3COc3ncccc3Cl)c(Cl)cc2c1=O` [Example 507, (R)-1-(6-([1,3′-biazetidin]-1′-yl)pyridin-3-yl)-6-chloro-7-(2-(((3-chloropyridin-2-yl)oxy)methyl)pyrrolidin-1-yl)-4-oxo-1,4-dihydroquinoline-3-carboxylic acid] it is at most 1000 nM. The same measure, in the same setting: the figure for `CN(C)C1CN(c2ccc(-n3cc(C(=O)O)c(=O)c4cc(Cl)c(N5CCC[C@@H]5COc5ncco5)cc43)cn2)C1` [Example 587, (R)-6-chloro-1-(6-(3-(dimethylamino)azetidin-1-yl)pyridin-3-yl)-7-(2-((oxazol-2-yloxy)methyl)pyrrolidin-1-yl)-4-oxo-1,4-dihydroquinoline-3-carboxylic acid] is at most 1000 nM; for `O=C(O)c1cn(-c2cc3nc[nH]c3cn2)c2cc(N3CCC[C@@H]3COc3ncccc3Cl)c(Cl)cc2c1=O` [Example 604, (R)-6-chloro-7-(2-(((3-chloropyridin-2-yl)oxy)methyl)pyrrolidin-1-yl)-1-(3H-imidazo[4,5-c]pyridin-6-yl)-4-oxo-1,4-dihydroquinoline-3-carboxylic acid] it is at most 1000 nM. On the same count and under the same terms, the figure for `COc1ccc(C2C[C@H](COc3ncccc3Cl)N(c3cc4c(cc3Cl)c(=O)c(C(=O)O)cn4-c3ccc(N4CC(N(C)C)C4)nc3)C2)cn1` (stereo partly drawn) [Example 603, 6-chloro-7-((2R)-2-(((3-chloropyridin-2-yl)oxy)methyl)-4-(6-methoxypyridin-3-yl)pyrrolidin-1-yl)-1-(6-(3-(dimethylamino)azetidin-1-yl)pyridin-3-yl)-4-oxo-1,4-dihydroquinoline-3-carboxylic acid] is at most 1000 nM.
